Test system: hair bulb root cells (keratinocytes)
Assay: In vitro test: cellular proliferation of root cells (keratinocytes) in cultured human scalp fragments, anti-Ki67 immunohistochemistry
Assay type: cell-based
Details: cultures stopped on D4, 1.7 μg/ml of miliacin, Ki67-positive cells
Procedure: This test consists of studying the cellular proliferation of root cells (keratinocytes). Indeed, as mentioned above, cellular proliferation at the hair bulb matrix promotes hair growth.
Composition A: 1.7 μg/ml of miliacin
Composition B: 150 μg/ml of the composition disclosed herein, Keranat, comprising: • 1.7 μg/ml of miliacin (1.1% of mixture) • 0.30 μg/ml of glycosylceramides and ceramides (0.21% of mixture) • 1.2 μg/ml of phospholipids (0.8% of mixture) Methodology
Human scalp fragments were obtained in plastic surgery from twelve different donors from the occipital area prior to hair implantation. They were deposited in inserts, in turn placed in culture wells. Culture medium specifically suitable for maintaining survival conditions (antibiotic, foetal calf serum (FCS)) was added to the bottom of the wells, running a passage by slow diffusion between the two compartments via a 3 μm thick porous membrane.
The composition is added in dilution at a predetermined dose, in the culture medium to promote contact with the hair bulbs. […]
The root proliferation was analysed by means of immunohistochemistry using an anti-Ki67 antibody marker of phase M, S, G1 and G2 cells in the cell cycle (mouse monoclonal antibody, MIB1 clone, diluted to 1:300, marketed by Dako). […]
On each bulb, the number of positive cells is counted with respect to a total of approximately 100 cells. […]

miliacin [Composition A]
Results (% of proliferating cells compared to control): +92%
Results (% of proliferating cells compared to control) (listed as millet oil alone): 92%
